Test results from a compilation of properties of binary mixtures (doi:10.2298/jsc160317058s).

Assay: xn = mol fraction of the nth substance listed
Details: 100 kPa

CCCC[n+]1ccn(C)c1.O=S(=O)([O-])C(F)(F)F + CN(C)c1ccccc1
x2 = 0
Details | viscosity [mPa·s]
288.15 K | 132.7
293.15 K | 102
298.15 K | 80.1
303.15 K | 64
313.15 K | 42.8
318.15 K | 35.7
323.15 K | 30
328.15 K | 25.5
333.15 K | 22

Nc1ccccc1 + CCCC[n+]1ccn(C)c1.O=S(=O)([O-])C(F)(F)F
x1 = 1
Details | viscosity [mPa·s]
288.15 K | 5.32
293.15 K | 4.41
298.15 K | 3.74
303.15 K | 3.2
308.15 K | 2.78
313.15 K | 2.45
318.15 K | 2.159
328.15 K | 1.738
333.15 K | 1.577

CCCC[n+]1ccn(C)c1.O=S(=O)([O-])C(F)(F)F + Nc1ccccc1
viscosity [mPa·s]
Details | 288.15 K | 293.15 K | 298.15 K | 303.15 K | 308.15 K | 313.15 K | 318.15 K | 323.15 K | 328.15 K | 333.15 K
x2 = 0 | – | 102 | 80.1 | 64 | 52.2 | 42.8 | 35.7 | 30 | 25.5 | 22
x2 = 0.1 | 110.3 | 85.3 | 67.5 | 54.6 | 44.4 | 36.6 | 30.6 | 25.9 | 22.17 | 19.07
x2 = 0.1995 | 90.9 | 70.6 | – | 45.5 | 37.2 | 30.7 | 25.8 | 21.9 | 18.82 | –
x2 = 0.3002 | – | – | 45.9 | – | 30.6 | 25.4 | 21.47 | – | 15.71 | 13.63
x2 = 0.3996 | – | – | – | – | – | – | – | 15.11 | 13.02 | 11.38
x2 = 0.8999 | 8.95 | 7.31 | 6.18 | 5.26 | 4.54 | 3.93 | 3.5 | – | – | 2.47

CN(C)c1ccccc1 + CCCC[n+]1ccn(C)c1.O=S(=O)([O-])C(F)(F)F
viscosity [mPa·s]
Details | 288.15 K | 293.15 K | 298.15 K | 303.15 K | 308.15 K | 313.15 K | 318.15 K | 323.15 K | 328.15 K | 333.15 K
x1 = 0.1 | 97.6 | 75.7 | 59.9 | 48.1 | 39.5 | 32.2 | – | 23 | – | –
x1 = 0.2 | 72.8 | 57.1 | 45.7 | 37 | – | – | 21.46 | 18.3 | 15.74 | 13.64
x1 = 0.2998 | – | 42.8 | 34.8 | 28.4 | 23.9 | 19.91 | 17.1 | 14.72 | 12.77 | 11.16
x1 = 0.397 | – | 31.5 | – | 21.69 | 18.27 | 15.46 | 13.4 | 11.63 | 10.19 | 8.98
x1 = 0.5045 | 26.1 | 21.17 | 17.76 | 14.77 | 12.85 | 11.04 | 9.68 | 8.5 | 7.52 | –
x1 = 0.5996 | 16.87 | 13.93 | 11.92 | 10.23 | 8.87 | 7.69 | 6.84 | 6.08 | 5.43 | 4.9
x1 = 0.6997 | – | 8.5 | 7.42 | 6.47 | 5.71 | – | – | 4.09 | 3.7 | 3.36
x1 = 0.7994 | 6 | 5.21 | 4.62 | 4.1 | 3.68 | 3.3 | 3.01 | 2.75 | 2.52 | 2.31
x1 = 0.8945 | 3.27 | 2.91 | – | 2.37 | 2.164 | 1.988 | – | 1.692 | – | –
x1 = 1 | – | – | 1.302 | 1.206 | 1.123 | 1.056 | 0.981 | – | 0.865 | 0.819
